In paper PMC4180634, “Pharmacokinetic Study and Bioavailability of a Novel Synthetic Trioxane Antimalarial Compound 97/63 in Rats” (Malaria Research and Treatment, 2014):
Read-outs that look alike come from different tables or passages of the source.

Legend:
[1] = test system: malarial parasites; set-up: method as in earlier work; settings: cited from earlier work
[2] = test system: malarial parasites; set-up: method as in earlier work; settings: cited from earlier work; remark: listed apart in the source
[3] = log P; type: physicochemical
[4] = Stability studies of 97/63 in rat serum samples (long-term, freeze-thaw, dry residue, autoinjector); type: physicochemical
Method: Long-term stability of 97/63 was carried by preparing QC samples at low, medium, and high concentrations in three replicates for four different days and stored at -60°C. These sets of samples were analyzed after 0, 7, 15, and 30 days of storage and their concentrations were read from the respective calibration standard curve. The results are expressed as % deviation from 0 days concentration. F-T stability of 97/63 in serum samples was determined by preparing QC of strengths low (10 ng mL^-1), medium (100 ng mL^-1), and high (500 ng mL^-1) in three replicates for four different days. One set of three concentrations was analyzed on day of preparation (no F-T cycle) before storing the remaining sets at -60°C. Other sets were analyzed after 1, 2, and […] cycles. Thawing was achieved by keeping the sealed tubes at room temperatures for 30 min. The results are expressed as % deviation with initial concentration. The effect of storage on dry residue stability was determined at QC 10 ng mL^-1 (low), 100 ng mL^-1 (medium), and 500 ng mL^-1 (high) concentration levels. All the samples (three replicates of three concentrations × 4 sets) were prepared and dry residue was stored in glass tubes sealed with aluminum foil and then with parafilm. One set in triplicate was reconstituted on day 1 with mobile phase and analyzed on the same day (without storage). The remaining sets were similarly analyzed on days 2, 4, and 8 and results are expressed as % deviation. After sample preparation, stability of 97/63 in the autoinjector was evaluated for 4 h; the maximum duration for which the sample may have to wait in the autoinjector tray for pending analysis and results are expressed in % deviation with initial injection (t = 0 h).

[5] = Single dose pharmacokinetic study after oral and intravenous administration in male rats (serum, HPLC-UV); type: in vivo, Sprague-Dawley rats; settings: for half-life: two-compartment model
Source text: Male Sprague-Dawley (SD) rats weighing 250 ± 25 g for this study were obtained from institutional Laboratory Animal Division, CDRI, Lucknow, prior to study. Rats were given standard pellets for feeding and filtered water was given ad libitum and they were housed in well ventilated cages which were kept at room temperature on a regular 12-h light-dark cycle. Animals were kept in accordance with the guidelines of local ethical committee (Ethical approval 58/08/PKM/IAEC) for animal experimentation and principles of the guide for care and use of laboratory animals were followed (Department of Health Education and Welfare, number [NIH] 85-32). Oral and IV study was carried out in two sets (I and II). Each set contained two groups, that is, groups A and B. PK was carried out by dosing 97/63 in two groups (A and B) containing four rats in each group for sparse sampling. Young and healthy male SD rats weighing 250 ± 25 g (obtained from Laboratory Animal Division of CDRI) were housed in well ventilated cages and kept at room temperature 25 ± 2°C on a regular 12-h light-dark cycle. Animals were cared for in accordance with the principles of guide for care and use of laboratory animals. Animals in oral study group were fasted overnight to minimize the effects of food on pharmacokinetic profile of 97/63. Intravenous dose was administered as a single bolus injection through tail vein using a 26 G needle after dilating the tail vein [16]. The oral dose was administered using a 2 mL syringe and feeding needle. After intravenous and oral dose administration, rats were also monitored for physiological behavior. […] The intravenous formulation for single dose, 18 mg kg^−1, was a solution of 97/63 in DMSO. The oral formulation for single dose, 72 mg kg^−1, was also a solution of 97/63 in DMSO. The formulations were subjected to quality control (QC) checks to ensure their strength and content uniformity prior to use. The strength of formulation for intravenous and oral administration was 18 mg mL^−1 and 36 mg mL^−1. Compound 97/63 formulated in DMSO was administered to overnight fasted rats by oral and intravenous route. The dose volume factor for intravenous administration was 1 mL kg^−1, with 250 g rat receiving 0.25 mL, and for oral administration it was 2 mL kg^−1, with 250 g rat receiving 0.5 mL of formulation. Sparse sampling approach was used to collect blood samples by cardiac puncture. The total volume of blood withdrawn within 24 hours was less than 5% of blood volume. Blood samples were collected in glass tubes at 0.083, 0.25, 0.5, 0.75, 1, 1.5, 2, 3, 4, 6, 8, 10, 18, 24, 48, and 60 h after oral dose. Blood samples were stored at room temperature for 30 min to separate the serum. Serum was separated by centrifugation at 1500 ×g for 10 min and stored at –60°C until analysis. Analysis was performed within 30 days of sample collection. Curve fitting and estimation of pharmacokinetic parameters of 97/63 were carried out using WinNonlin (5.1) software program (Pharsight Corp, USA). The data were tested using Gauss-Newton algorithm, with noncompartment, one compartment, and two-compartment models after applying different weighting factor to the observed values of the concentrations. Decision on the suitability of a particular compartment model in explaining the data was undertaken based on the Akaike or Schwarz information criterion, correlation coefficient, and scatter of residuals.

[6] = Sprague-Dawley, rat, oral 72 mg kg^−1, male rats, serum

logP [3]: < 3.5 | reinjection (autoinjector) stability, deviation ([4]; 4 h gap, samples stored at 4°C): less than 10% | dry residue stability after extraction ([4]; 8 days stored at −60°C): stable | long-term stability in serum ([4]; 30 days, normal serum stored at −60°C): stable | freeze-thaw stability in serum ([4]; three F-T cycles): stable | clearance ([5]; Sprague-Dawley, rat, serum, intravenous 18 mg kg^−1, male rats): 148 mL/min/kg | Vd ([5]; Sprague-Dawley, rat, serum, intravenous 18 mg kg^−1, male rats, read-out: Vd): 135 ± 11.2 L/kg | AUC(0-inf) ([5]; Sprague-Dawley, rat, intravenous 18 mg kg^−1, male rats, serum): 2030 ± 574 ng·h/mL | C0 ([5]; Sprague-Dawley, rat, intravenous 18 mg kg^−1, male rats, serum, mean ± SD, N = 4): 1800 ± 330 ng/mL | AUC(0-inf) [5, 6]: 1270 ± 27 ng·h/mL | Tmax [5, 6]: 1 ± 0.7 h | Cmax ([5]; Sprague-Dawley, rat, oral 72 mg kg^−1, male rats, serum, mean ± SD, N = 4): 229 ± 64.3 ng/mL | metabolite peaks in rat serum ([5]; after oral and intravenous dose, HPLC-UV): No metabolite peaks were observed | half-life ([5]; male, Sprague-Dawley, rat, serum, iv, 18 mg/kg, intravenous 18 mg kg^−1, male rats, read-out: T 1/2 (α) distribution half-life (converted)): 0.45 ± 0.08 h | half-life ([5]; male, Sprague-Dawley, rat, serum, iv, 18 mg/kg, intravenous 18 mg kg^−1, male rats, read-out: T 1/2 (β) elimination half-life (converted)): 10.6 ± 0.16 h | bioavailability ([5]; male, Sprague-Dawley, rat, serum, oral, 72 mg kg^−1, oral 72 mg kg^−1 vs intravenous 18 mg kg^−1, male rats, read-out: % bioavailability (absolute)): ~16% | half-life ([5]; male, Sprague-Dawley, rat, serum, po, 72 mg/kg, oral 72 mg kg^−1, male rats, read-out: T 1/2 (α) distribution half-life (converted)): 0.84 ± 0.14 h | half-life ([5]; male, Sprague-Dawley, rat, serum, po, 72 mg/kg, oral 72 mg kg^−1, male rats, read-out: T 1/2 (β) elimination half-life (converted)): 10.6 ± 0.2 h | Cl ([5]; oral 72 mg kg^−1, male rats): 187 ± 1.2 mL/min/kg | Vd ([5]; oral 72 mg kg^−1, male rats): 172.31 ± 28.59 L/kg | absorption rate constant (K a) ([5]; oral 72 mg kg^−1, male rats): 0.82 h⁻¹ | clinical symptoms after dosing ([5]; oral 72 mg kg^−1 and intravenous 18 mg kg^−1, male rats, sampling period): No abnormal clinical symptoms | % bioavailability (absolute) ([5]; oral 72 mg kg^−1 vs intravenous 18 mg kg^−1, male rats): 15.66%
SMILES: C=C(c1ccc(OC(C)(C)CO)cc1)C1COC2(OO1)C1CC3CC(C1)CC2C3 (stereo not shown) [97/63]
potency against malarial parasites in vivo [1]: good potency | potency against malarial parasites in vitro [2]: good potency
